# Like-named read-outs stand apart in the source and are kept apart here.
# Key:
# [1] = target: NR1/NR2C (Homo sapiens, UniProt Q05586+Q14957); test: Reactivity with NMDA receptor subtype NR1/NR2C expressed on Xenopus oocytes; format: cell-based; conditions: AQ444 0.1 to 30 μM, FIG. 2
# Method: (§1) AQ444 was added to the perfusion solution to get a final concentration of 0.1 to 30 μM. […] Further, the intensities in channel blocking activity against the receptors were in the order of NR1/NR2A=NR1/NR2B=NR1/NR2D>>NR1/NR2C.
# [2] = target: NR1/NR2A (Homo sapiens, UniProt Q05586+Q12879); test: Channel blocking activity on NMDA receptors (NR1/NR2A) expressed on Xenopus oocytes, two electrode voltage clamp; conditions: for voltage dependence of channel blocking activity: membrane potential changed from −150 mV to +10 mV
# Sequence of NR1/NR2A (Q12879 23-1464, other chains not shown): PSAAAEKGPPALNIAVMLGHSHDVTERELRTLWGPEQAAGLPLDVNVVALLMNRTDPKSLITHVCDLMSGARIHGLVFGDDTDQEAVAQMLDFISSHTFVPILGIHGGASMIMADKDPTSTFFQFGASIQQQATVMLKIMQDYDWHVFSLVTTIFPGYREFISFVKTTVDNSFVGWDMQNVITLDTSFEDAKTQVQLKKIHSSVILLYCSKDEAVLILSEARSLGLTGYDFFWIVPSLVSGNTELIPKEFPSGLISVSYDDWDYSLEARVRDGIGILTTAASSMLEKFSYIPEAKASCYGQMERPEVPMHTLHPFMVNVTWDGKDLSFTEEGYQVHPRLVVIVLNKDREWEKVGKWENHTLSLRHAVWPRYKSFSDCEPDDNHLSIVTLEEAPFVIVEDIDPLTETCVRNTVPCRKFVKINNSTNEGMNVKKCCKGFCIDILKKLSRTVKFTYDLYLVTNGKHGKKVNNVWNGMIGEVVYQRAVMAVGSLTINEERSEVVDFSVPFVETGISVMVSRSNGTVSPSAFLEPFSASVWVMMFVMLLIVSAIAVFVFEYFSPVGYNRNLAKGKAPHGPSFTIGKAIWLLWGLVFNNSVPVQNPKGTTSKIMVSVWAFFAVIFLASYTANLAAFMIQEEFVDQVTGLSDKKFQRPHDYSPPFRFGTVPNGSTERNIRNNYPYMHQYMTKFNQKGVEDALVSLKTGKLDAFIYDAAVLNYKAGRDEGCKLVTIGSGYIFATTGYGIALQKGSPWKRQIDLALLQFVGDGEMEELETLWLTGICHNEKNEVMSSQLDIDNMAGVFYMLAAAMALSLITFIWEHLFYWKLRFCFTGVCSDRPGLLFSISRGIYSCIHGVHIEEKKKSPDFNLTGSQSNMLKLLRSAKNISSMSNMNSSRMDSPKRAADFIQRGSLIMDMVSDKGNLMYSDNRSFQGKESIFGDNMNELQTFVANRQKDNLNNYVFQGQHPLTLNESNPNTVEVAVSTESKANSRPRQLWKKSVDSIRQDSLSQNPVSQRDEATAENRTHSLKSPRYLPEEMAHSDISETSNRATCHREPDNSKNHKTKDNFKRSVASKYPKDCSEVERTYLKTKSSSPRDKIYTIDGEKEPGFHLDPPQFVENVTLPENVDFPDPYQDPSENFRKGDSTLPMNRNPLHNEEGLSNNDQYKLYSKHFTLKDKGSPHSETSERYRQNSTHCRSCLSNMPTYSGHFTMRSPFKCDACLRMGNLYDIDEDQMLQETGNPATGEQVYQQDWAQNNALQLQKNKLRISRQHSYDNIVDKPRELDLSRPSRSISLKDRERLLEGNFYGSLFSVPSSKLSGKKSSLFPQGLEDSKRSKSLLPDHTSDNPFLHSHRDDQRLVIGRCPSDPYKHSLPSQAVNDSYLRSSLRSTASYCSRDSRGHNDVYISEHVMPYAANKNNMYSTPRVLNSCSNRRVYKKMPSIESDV
# [3] = target: NR1/NR2B (Homo sapiens, UniProt Q05586+Q13224); test: Reactivity with NMDA receptor subtype NR1/NR2B expressed on Xenopus oocytes; format: cell-based; conditions: AQ444 0.1 to 30 μM, FIG. 2
# Sequence of NR1/NR2B (Q13224 27-1484, other chains not shown): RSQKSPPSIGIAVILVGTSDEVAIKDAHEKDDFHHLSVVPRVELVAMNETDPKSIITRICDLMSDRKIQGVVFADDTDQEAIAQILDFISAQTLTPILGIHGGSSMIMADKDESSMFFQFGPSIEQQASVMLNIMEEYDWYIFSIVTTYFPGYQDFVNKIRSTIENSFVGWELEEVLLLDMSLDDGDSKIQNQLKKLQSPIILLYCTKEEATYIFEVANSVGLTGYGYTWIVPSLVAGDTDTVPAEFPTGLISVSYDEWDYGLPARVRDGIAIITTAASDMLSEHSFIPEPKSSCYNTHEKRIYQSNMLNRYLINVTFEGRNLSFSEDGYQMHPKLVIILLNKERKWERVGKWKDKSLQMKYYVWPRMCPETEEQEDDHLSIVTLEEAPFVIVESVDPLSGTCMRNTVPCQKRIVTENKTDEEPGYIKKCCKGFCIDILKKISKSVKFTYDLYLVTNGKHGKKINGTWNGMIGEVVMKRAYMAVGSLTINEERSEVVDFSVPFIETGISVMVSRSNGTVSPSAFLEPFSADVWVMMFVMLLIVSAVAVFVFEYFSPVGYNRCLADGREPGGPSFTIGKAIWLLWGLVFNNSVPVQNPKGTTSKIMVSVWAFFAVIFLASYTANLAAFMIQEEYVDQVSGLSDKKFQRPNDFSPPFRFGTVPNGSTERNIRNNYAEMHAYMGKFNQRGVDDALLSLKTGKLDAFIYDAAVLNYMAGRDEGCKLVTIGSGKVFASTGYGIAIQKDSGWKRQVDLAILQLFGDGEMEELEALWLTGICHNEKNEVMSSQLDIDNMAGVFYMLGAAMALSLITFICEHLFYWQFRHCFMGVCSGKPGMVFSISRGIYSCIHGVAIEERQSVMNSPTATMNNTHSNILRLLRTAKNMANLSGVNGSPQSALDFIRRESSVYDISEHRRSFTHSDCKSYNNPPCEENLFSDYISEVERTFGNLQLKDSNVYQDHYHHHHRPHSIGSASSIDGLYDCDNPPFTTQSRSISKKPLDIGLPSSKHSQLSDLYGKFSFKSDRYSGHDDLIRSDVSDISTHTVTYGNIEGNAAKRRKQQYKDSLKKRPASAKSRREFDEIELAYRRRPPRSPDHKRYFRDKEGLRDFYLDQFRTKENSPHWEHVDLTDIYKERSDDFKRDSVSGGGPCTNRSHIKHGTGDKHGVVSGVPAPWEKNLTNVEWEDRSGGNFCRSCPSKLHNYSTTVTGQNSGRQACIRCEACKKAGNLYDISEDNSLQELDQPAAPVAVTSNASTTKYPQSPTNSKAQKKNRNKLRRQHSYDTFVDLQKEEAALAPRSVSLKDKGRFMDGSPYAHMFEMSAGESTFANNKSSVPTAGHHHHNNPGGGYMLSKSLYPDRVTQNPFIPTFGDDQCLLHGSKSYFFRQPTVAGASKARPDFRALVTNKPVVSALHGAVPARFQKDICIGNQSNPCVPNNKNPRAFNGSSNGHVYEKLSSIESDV
# Method: as §1
# [4] = target: NR2B mutant N616Q (Homo sapiens, UniProt Q05586+Q13224, N616Q); test: Channel blocking activity on NMDA receptor mutant NR2B N616Q expressed in eggs; format: cell-based; conditions: FIG. 3
# Description: (§2) Site-directed mutagenesis was utilized to construct NMDA receptor mutants with amino acid substitutions. The NMDA receptor mutants were expressed in eggs in the same method as shown in Example 1 to investigate for channel blocking activity of AQ444. […] Other relevant amino acid residues on the NMDA receptors are shown in FIG. 4 together with their models.
# [5] = target: NR2B mutant N615Q (Homo sapiens, UniProt Q05586+Q13224, N615Q); test: Channel blocking activity on NMDA receptor mutant NR2B N615Q expressed in eggs; format: cell-based; conditions: FIG. 3
# Sequence of NR2B mutant N615Q (Q13224 27-1484 N615Q, other chains not shown): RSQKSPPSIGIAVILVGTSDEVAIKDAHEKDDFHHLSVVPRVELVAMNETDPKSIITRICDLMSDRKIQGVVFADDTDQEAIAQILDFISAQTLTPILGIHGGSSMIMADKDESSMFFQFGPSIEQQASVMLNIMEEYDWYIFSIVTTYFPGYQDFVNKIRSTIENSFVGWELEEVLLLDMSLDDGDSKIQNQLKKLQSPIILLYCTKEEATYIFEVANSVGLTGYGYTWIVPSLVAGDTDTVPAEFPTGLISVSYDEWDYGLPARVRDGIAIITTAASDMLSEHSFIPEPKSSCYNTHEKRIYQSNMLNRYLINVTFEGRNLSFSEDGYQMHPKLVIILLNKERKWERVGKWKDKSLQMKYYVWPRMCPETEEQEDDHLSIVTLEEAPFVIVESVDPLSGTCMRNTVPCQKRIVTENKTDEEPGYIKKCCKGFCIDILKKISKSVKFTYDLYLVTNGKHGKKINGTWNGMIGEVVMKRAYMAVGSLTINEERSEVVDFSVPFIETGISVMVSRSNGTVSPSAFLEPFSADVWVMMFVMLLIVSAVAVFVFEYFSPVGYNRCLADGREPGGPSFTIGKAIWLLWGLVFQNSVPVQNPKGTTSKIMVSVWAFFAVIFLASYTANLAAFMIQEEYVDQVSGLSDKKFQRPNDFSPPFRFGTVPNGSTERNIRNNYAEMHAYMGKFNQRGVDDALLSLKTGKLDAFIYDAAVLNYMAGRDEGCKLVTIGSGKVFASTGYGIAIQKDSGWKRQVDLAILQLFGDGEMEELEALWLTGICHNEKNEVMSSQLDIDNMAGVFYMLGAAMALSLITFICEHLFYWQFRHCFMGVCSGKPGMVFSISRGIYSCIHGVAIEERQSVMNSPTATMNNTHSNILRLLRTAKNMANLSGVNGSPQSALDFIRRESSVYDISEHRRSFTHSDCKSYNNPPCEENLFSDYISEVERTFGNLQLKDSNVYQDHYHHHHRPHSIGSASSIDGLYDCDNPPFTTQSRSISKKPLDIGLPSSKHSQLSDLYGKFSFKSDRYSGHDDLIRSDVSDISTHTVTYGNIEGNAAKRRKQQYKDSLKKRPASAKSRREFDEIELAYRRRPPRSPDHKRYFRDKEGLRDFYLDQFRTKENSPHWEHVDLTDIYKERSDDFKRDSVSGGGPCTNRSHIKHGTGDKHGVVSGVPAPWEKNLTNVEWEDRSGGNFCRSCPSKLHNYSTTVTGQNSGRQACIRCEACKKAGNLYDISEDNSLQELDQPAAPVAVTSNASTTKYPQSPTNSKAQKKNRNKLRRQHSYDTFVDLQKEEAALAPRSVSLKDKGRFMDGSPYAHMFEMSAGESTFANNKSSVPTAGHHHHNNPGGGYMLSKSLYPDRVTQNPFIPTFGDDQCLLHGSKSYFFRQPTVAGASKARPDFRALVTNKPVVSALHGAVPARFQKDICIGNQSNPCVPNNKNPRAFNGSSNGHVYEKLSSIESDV
# Description: as §2
# [6] = target: NR1/NR2D (Homo sapiens, UniProt O15399+Q05586); test: Reactivity with NMDA receptor subtype NR1/NR2D expressed on Xenopus oocytes; format: cell-based; conditions: AQ444 0.1 to 30 μM, FIG. 2
# Method: as §1
# [7] = test system: NR1 mutant N616Q; test: Channel blocking activity on NMDA receptor mutant NR1 N616Q expressed in eggs; format: cell-based; conditions: FIG. 3
# Description: as §2
# [8] = test system: NR1 mutant N616R; test: Channel blocking activity on NMDA receptor mutant NR1 N616R expressed in eggs; format: cell-based; conditions: FIG. 3
# Description: as §2
# [9] = Cytotoxicity; format: cell-based
# [10] = read-out: 50% inhibition concentration (IC50) of channel blocking activity, membrane potential clamp at −70 mV, 10 μM glycine and 10 μM glutamic acid, Xenopus oocytes
IC50 [2],voltage dependence of channel blocking activity [2],"IC50 [2, 10]",SMILES,IC50 [9],also measured
,in a voltage-dependent manner,0.24 µM,"NCCCCNCCCCNCCCCNC(=O)N1c2ccccc2C=Cc2ccccc21 [DBA444, Dibenzoazepine Homospermine]",132 µM,
,in a voltage-dependent manner,0.072 µM,"NCCCCNCCCCNCCCCNC(=O)N1c2ccccc2CCc2ccccc21 [DDBA444, Dihydrodibenzoazepine Homospermine]",133 µM,
15 µM,,,"NCCCNCCCCNCCCNC(=O)n1c2ccccc2c2ccccc21 [carbazole spermine, Carbazole Spermine]",,

# Further lines, the compound ahead of its results:
SMILES,IC50 [2],voltage dependence of channel blocking activity [2],"IC50 [2, 10]",IC50 [9],also measured
"NCCCCNCCCCNCCCCNC(=O)c1ccc2c(c1)C(=O)c1ccccc1C2=O [AQ444, Anthraquinone Homospermine]",0.47 µM,showed voltage dependence,,,"order of intensity in channel blocking activity among subtypes [1]: NR1/NR2A=NR1/NR2B=NR1/NR2D>>NR1/NR2C; order of intensity in channel blocking activity among subtypes ([2]; NR1/NR2A, AQ444 0.1 to 30 μM, FIG. 2): NR1/NR2A=NR1/NR2B=NR1/NR2D>>NR1/NR2C; order of intensity in channel blocking activity among subtypes [3]: NR1/NR2A=NR1/NR2B=NR1/NR2D>>NR1/NR2C; channel blocking activity on mutant [4]: significantly decreased channel blocking activity; channel blocking activity on mutant [5]: significantly decreased channel blocking activity; order of intensity in channel blocking activity among subtypes [6]: NR1/NR2A=NR1/NR2B=NR1/NR2D>>NR1/NR2C; channel blocking activity on mutant [7]: significantly decreased channel blocking activity; channel blocking activity on mutant [8]: significantly decreased channel blocking activity"
"CC12CC3CC(C)(C1)CC(N)(C3)C2 [memantine, reference compound]",,,,147 µM,

# — patent US8987253B2, “Compound having activity of blocking NMDA receptor channel, and pharmaceutical agent using the same” (National University Corporation Chiba University, priority 2006, dated 2015)
